Results as given in the METLIN SMRT retention time set (Domingo-Almenara et al. 2019).

Assay: gradient 5% acetonitrile 3 min, to 50% in 2 min, to 85% in 15 min, held 3 min, 100 µL/min
Conditions: column: Zorbax Extend-C18 2.1 x 50 mm; eluents: water / acetonitrile, 0.1% formic acid
How it was run: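 In both positive and negative ionization mode, a quadrupole time-of-flight mass spectrometer coupled to HPLC analyzed pure standards run in mixtures of ~100 molecules. The Zorbax Extend-C18 column (2.1 × 50 mm, 1.8 μm) was operated at 100 μL/min with water and acetonitrile, each containing 0.1% formic acid. The dead volume was 40 μL and the dwell volume 900 μL. Retention time came from adduct peaks that were computationally picked and individually inspected by hand.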

SMILES	RP-LC retention time [s]
Cc1nc(-c2ccc(S(=O)(=O)Nc3cccnc3)cc2)co1	640
CO[C@H]1C(=O)N(C(C)C)[C@H]1C1CCN(C(=O)c2ccco2)CC1	692
CC1=C(c2ccccc2)S(=O)(=O)N=C1N1CCCN(C(=O)c2ccccc2F)CC1	802
O=C(NCC(c1ccc2c(c1)OCO2)N1CCN(c2ccc(F)cc2)CC1)C1CC1 (centres undefined)	682
CNC(=O)C(=O)Nc1ccc(N(C)C)cc1	486
COCc1c(C(=O)O)nnn1-c1cccc(Br)c1	729
COCCNc1ncc(C(=O)O)c(-c2ccc(OC)cc2)n1	658
O=C(Nc1ccc(S(=O)(=O)N2CCOCC2)cc1)c1ccc(Br)s1	858
COc1ccc(NC(=O)N2C[C@@H]3C[C@H](NS(=O)(=O)c4ccccc4)[C@H]2C3)c(OC)c1	745
COc1ccc(NC(=O)CCC2CCN(c3cc(NC4CC4)ncn3)CC2)c(OC)c1	688
Cc1ccccc1Nc1c(-c2ccc(N(C)C)cc2)nc2ncccn12	725
CCC(C)NC(=O)c1ccc2c(c1)CCCN2S(C)(=O)=O (centres undefined)	754
Cc1c(S(=O)(=O)NCc2ccco2)c(C)n(C)c1-c1nnc(C2CCC2)o1	853
O=C(CN1C(=O)CCCc2cc(S(=O)(=O)N3CCCC3)ccc21)Nc1ccc(Cl)cc1	892
CC(=O)Nc1ccc(NC(=O)[C@H]2C[C@H]3CCCN3[C@@]23C(=O)N(C)c2ccccc23)cc1	572
CC(C)Cn1c(=O)c(C(=O)NCc2ccccc2F)nc2cccnc21	868
CCCn1cc(CCNC(=O)Nc2cccc(C)c2C)c2cccnc21	785
CCOc1ccc(NC(=O)Cn2c(=O)c(CCC(=O)NC3CCCC3)nc3ccccc32)cc1	860
O=C1C2N=NN(Cc3nc(-c4ccc5c(c4)OCO5)no3)C2C(=O)N1c1ccc2c(c1)OCO2 (centres undefined)	899
CCc1ccccc1NC(=O)Cn1c(N)nc(CC)c(C)c1=O	633
Cc1ccc(CNC(=O)C2CCCN(C(=O)c3cc(-c4cccnc4)n[nH]3)C2)o1 (centres undefined)	611
CCCCN1CCC(CCC(=O)c2cc(Cl)c(N)cc2OC)CC1	726
COc1cccc(Cn2nc3n(Cc4ccc(C)cc4)c(=O)c4nn(C)cc4n3c2=O)c1	935
CCN1c2cc(F)ccc2C(=O)NC12CCN(C(=O)c1ccc(C)cc1)CC2	807
c1ccc(OCCSc2nc3ccccc3[nH]2)cc1	625

SMILES	RP-LC retention time [s]
CCn1cc(-c2nc(C(=O)Nc3cc(F)ccc3C)cs2)c2cccnc21	899
COc1ccc(-c2nnc(COc3ccc(NC(=O)c4cccnc4SC)cc3)o2)cc1	893
COc1ccccc1NC(=O)CN1C(=O)NC2(CCC(C)CC2)C1=O (centres undefined)	803
CCOc1ccc(-c2nc(C3CC(=O)N(c4ccc(F)c(Cl)c4)C3)no2)cc1 (centres undefined)	1170
Cc1nc(N2CCOCC2)c2c(C(=O)Nc3cccc(Cl)c3)c(C)oc2n1	890
COc1cccc(-c2nnc(Cc3nc(-c4cccs4)no3)o2)c1	929
CC1=C(c2ccccc2)S(=O)(=O)N=C1N1CCCN(C(=O)Cn2ccnc2C)CC1	589
Cc1cccc(CCNC(=O)C2CCN(S(=O)(=O)N3CCOCC3)CC2)c1	769
COc1ccc(NC(=O)C(C)C2CCN(C(=O)Nc3ccc(Cl)cc3)CC2)c(OC)c1 (centres undefined)	898
COc1ccc(C)cc1NC(=O)Cn1nc2nc(N3CCCC(C)C3)ccn2c1=O (centres undefined)	841
COc1ccc(-c2c(C)noc2NC(C)=O)cc1S(=O)(=O)Nc1ccc(Br)cc1F	817
CCc1ccc2oc(=O)cc(CN3CCN(c4ccccn4)CC3)c2c1	669
CCOC(=O)CNC(=O)N1CCN(Cc2nc3cc(Cl)ccc3o2)CC1	644
CCNc1nc(C)cc(N2CCN(S(=O)(=O)c3ccc(-c4csc(C)n4)s3)CC2)n1	733
CCOC(=O)c1noc2nc(C)nc(Nc3cccc(C)c3)c12	1170
CCCCN(C)C(=O)Cn1c(C2CCCN2C(C)=O)nc2ccccc21 (centres undefined)	627
Fc1ccccc1-c1nnc(SCc2cccc(C(F)(F)F)c2)o1	1070
CC1(C)CC2CC(C)(CN2c2nc(-c3ccc([N+](=O)[O-])cc3)nc3ccccc23)C1 (centres undefined)	1050
Cc1ccc(Nc2nc(N)nc(CN3CCC(C(N)=O)CC3)n2)cc1	565
CCc1cccc(NC(=O)C2CCCN(c3cc(=O)n(C)c(=O)n3C)C2)c1 (centres undefined)	794
CC(C)CCNC(=O)c1nnc(-c2ccc(S(=O)(=O)N(C)C)cc2)o1	877
Cc1cc(N2CCN(C(=O)c3ccc(Br)o3)CC2)nc(N2CCCCC2)n1	690
CCc1ccc(CNC(=O)C2CCCN(C(=O)c3[nH]c(C)c(C(=O)OC(C)C)c3C)C2)cc1 (centres undefined)	959
COc1cccc(-c2noc(-c3nc(-c4ccc5c(c4)OCO5)no3)n2)c1OC	1150
COC(=O)C1=CN(c2cccc(C)c2C)c2ccccc2S1(=O)=O	916

Results, then the molecule that gave them:

RP-LC retention time [s]	SMILES
747	CC(O)(c1ccccc1)C(c1ccccc1)C1CCCCN1 (centres undefined)
624	Cc1ccc(-c2cc(C(=O)NCCN3CCN(C)CC3)n(C)c2)cc1
826	COc1ccc(NC(=O)CN2C(=O)C(C)(C)c3ccccc32)cc1
734	Cc1ccc(-n2nnnc2CNC(=O)Nc2ccc3c(c2)OCO3)cc1C
870	CCc1nn(C)c(=O)c2cc(S(=O)(=O)NC(C)c3ccccc3)cn12 (centres undefined)
778	COc1ccc(-c2cn3cccnc3n2)cc1NC(=O)c1ccc(C(F)(F)F)cc1
906	COc1ccc(OC)c(S(=O)(=O)N2C[C@@H](F)C[C@H]2C(=O)N2CCOCC2)c1
709	Cc1ccnc(N2CCCC(C(=O)NC3CCCCC3)C2)n1 (centres undefined)
563	CN(C)C(=O)c1cc2c(s1)CCC(C(=O)NCCc1ccncc1)C2 (centres undefined)
720	CCCC(=O)N1CCc2c([nH]c3ccccc23)C1c1ccc(OC)cc1 (centres undefined)
837	Cc1cccc(-n2c(=O)c3c(cc(C)n3C)n(CC(=O)Nc3ccc4c(c3)OCO4)c2=O)c1
872	CC1=C(c2ccc(C)cc2)S(=O)(=O)N=C1N1CCCN(C(=O)C2CCCC2)CC1
633	Cc1cnc(C(=O)N[C@@H]2CCC[C@@H]2C(=O)N2CCSCC2)cn1
821	COc1ccc(C(C)NC(=O)C2=C3CCCN3c3ccc(F)cc3S2(=O)=O)cc1OC (centres undefined)
732	COc1ccc(-c2nc3cccnc3n2C2CCN(C(=O)c3cccs3)C2)cc1 (centres undefined)
907	CCn1c(=O)c(N2CCCC(C(=O)NCCc3c[nH]c4ccc(OC)cc34)C2)nc2ccccc21 (centres undefined)
1090	O=c1ccc(-c2ccccc2)nn1Cc1nc(-c2cccc(Br)c2)no1
791	COc1cc(CNC(=O)c2c(N3CCCC3=O)c3cc(F)ccc3n2C)cc(OC)c1OC
685	CCN1CCC(CCNC(=O)c2cc3c(s2)N(CC)CCCC3)CC1
737	O=C(Nc1ccc(N2CCN(Cc3ccccc3)C2=O)nc1)C1CCC1

RP-LC retention time [s]	SMILES
1160	CCc1ccc(-c2noc(Cn3c(=O)n(CC)c(=O)c4ccccc43)n2)cc1
900	CCCn1cc(CCNC(=O)Nc2cccc(Cl)c2F)c2cccnc21
1070	Cn1c(=O)oc2cc(-c3noc(-c4ccccc4Br)n3)ccc21
846	CSc1ccc(CNC(=O)C2CCN(c3nnc(-c4ccccc4)o3)CC2)cc1
843	O=C(NCc1cccs1)C1CCCN(c2nc3ccsc3c(=O)n2-c2ccc(F)cc2)C1 (centres undefined)
635	CCCC(NCc1ccc2c(c1)n(C)c(=O)n2C)c1ccccc1 (centres undefined)
559	O=C(C1CCCN(Cc2nc(-c3ccncc3)no2)C1)N1CCN(c2ncccn2)CC1 (centres undefined)
919	CCOc1ccccc1NC(=O)C(CC)n1cnc2nc3c(cc2c1=O)CCCC3 (centres undefined)
968	CCOC(=O)c1noc2ncnc(N3CCN(c4ccccc4)CC3)c12
1020	O=C(Nc1c(Cl)cncc1Cl)c1ccc(OC(F)F)c(OCC2CC2)c1
944	COc1cc(OC)cc(-c2noc(Cn3cnc4c(oc5ccccc54)c3=O)n2)c1
771	CCC(C)NC(=O)c1nc(CCS(=O)(=O)c2ccccc2)no1 (centres undefined)
861	O=C(c1ccc2nsnc2c1)N(Cc1ccsc1)C1CC1
669	NS(=O)(=O)c1ccc(CCNC(=O)Cc2cc(-c3cccs3)on2)cc1
839	Cc1ccc(NC(=O)Cn2nc3c(N4CCSCC4)nccn3c2=O)cc1C
871	CCC(C)NC(=O)c1cc(COc2ccc(NC(=O)CC(C)C)cc2)on1 (centres undefined)
790	NC(=O)C1CCN(c2ncnc3c2c(-c2ccccc2)cn3-c2cccc(Cl)c2)CC1
841	Cc1ccc(C(=O)NCCc2c[nH]c3ccc(F)cc23)cc1
956	Cc1cc(NC(=O)c2sc(NCc3ccco3)nc2C)ccc1Cl
